The record followed here is patent publication US9730940B2, “Purine inhibitors of human phosphatidylinositol 3-kinase delta” (priority 2012, dated 2017).

The assay addresses PI3K-alpha (Homo sapiens (Human), UniProt P42336). Nature of the assay: HTRF PI3K biochemical assay, alpha isoform. The conditions noted are these: ratio PI3K-alpha IC50 value/PI3K-delta IC50 value.

PI3K-alpha, sequence (P42336 whole entry, looked up, canonical isoform): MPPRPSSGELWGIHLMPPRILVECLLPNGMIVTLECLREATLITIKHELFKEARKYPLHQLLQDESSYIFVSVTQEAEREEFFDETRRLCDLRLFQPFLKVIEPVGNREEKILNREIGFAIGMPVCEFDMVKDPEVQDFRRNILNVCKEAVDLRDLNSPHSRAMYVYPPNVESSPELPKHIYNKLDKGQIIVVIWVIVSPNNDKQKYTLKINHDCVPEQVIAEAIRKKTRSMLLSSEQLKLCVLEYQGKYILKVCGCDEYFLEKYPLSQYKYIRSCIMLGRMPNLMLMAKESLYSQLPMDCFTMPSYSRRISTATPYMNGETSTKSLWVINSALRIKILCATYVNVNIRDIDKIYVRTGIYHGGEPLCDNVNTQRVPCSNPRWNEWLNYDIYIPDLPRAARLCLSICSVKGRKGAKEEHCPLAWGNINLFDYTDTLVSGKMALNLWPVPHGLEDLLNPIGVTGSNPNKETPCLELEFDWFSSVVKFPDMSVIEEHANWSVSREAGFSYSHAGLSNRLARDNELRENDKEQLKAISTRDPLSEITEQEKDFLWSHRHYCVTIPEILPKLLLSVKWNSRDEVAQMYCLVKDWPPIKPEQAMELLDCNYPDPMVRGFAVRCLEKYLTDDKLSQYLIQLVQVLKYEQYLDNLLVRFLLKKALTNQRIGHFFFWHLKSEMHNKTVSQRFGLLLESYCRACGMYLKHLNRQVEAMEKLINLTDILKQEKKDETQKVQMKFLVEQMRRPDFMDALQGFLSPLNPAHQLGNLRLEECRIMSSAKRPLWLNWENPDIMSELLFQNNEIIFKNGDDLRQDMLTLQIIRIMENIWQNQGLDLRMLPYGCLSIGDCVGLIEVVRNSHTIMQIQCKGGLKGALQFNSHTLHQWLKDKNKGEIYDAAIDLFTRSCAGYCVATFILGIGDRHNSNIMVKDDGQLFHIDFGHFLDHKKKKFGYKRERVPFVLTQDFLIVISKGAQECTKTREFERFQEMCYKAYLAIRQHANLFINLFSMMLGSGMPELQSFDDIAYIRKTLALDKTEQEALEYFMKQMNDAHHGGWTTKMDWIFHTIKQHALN
PI3K-alpha, sequence (P27986 whole entry partner, looked up, canonical isoform): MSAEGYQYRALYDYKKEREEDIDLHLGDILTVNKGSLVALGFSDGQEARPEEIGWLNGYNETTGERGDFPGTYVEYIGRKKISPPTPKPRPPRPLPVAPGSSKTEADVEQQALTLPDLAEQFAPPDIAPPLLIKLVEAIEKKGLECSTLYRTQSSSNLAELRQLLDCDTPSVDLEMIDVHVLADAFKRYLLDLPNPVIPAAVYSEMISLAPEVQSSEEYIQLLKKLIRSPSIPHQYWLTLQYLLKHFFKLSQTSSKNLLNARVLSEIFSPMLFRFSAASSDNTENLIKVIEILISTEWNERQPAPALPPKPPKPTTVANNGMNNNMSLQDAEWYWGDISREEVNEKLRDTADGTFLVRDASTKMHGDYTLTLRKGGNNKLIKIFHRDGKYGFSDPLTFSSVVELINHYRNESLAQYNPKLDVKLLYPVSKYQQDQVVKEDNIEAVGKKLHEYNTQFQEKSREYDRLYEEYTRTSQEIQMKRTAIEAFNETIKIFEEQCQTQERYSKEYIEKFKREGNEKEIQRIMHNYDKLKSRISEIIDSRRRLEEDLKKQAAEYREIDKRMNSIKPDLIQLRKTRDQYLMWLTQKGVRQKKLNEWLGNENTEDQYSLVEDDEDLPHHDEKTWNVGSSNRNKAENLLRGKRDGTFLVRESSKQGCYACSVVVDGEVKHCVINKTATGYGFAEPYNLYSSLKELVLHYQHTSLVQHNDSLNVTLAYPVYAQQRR

As for `CCn1c(-c2cnc(C)nc2)nc2c(OC3(C)CCN(C(=O)C4CC4)C3)ncnc21` (centres unmarked) [Compound 2-141, 6-{[1-(cyclopropylcarbonyl)-3-methylpyrrolidin-3-yl]oxy}-9-ethyl-8-(2-methylpyrimidin-5-yl)-9H-purine], the “Relative Selectivity versus PI3Kalpha” value was above 10. To `CCn1ncc(-c2nc3c(O[C@H]4CCN(C(=O)c5[nH]ncc5C)C4)ncnc3n2C)c1C` [Compound 2-48, 8-(1-ethyl-5-methyl-1H-pyrazol-4-yl)-9-methyl-6-({(3S)-1-[(4-methyl-1H-pyrazol-5-yl)carbonyl]pyrrolidin-3-yl}oxy)-9H-purine] belongs above 10; to `CCn1ncc(-c2nc3c(O[C@H]4CCN(C(=O)c5cn(C)nn5)C4)ncnc3n2C)c1C` [Compound 2-44, 8-(1-ethyl-5-methyl-1H-pyrazol-4-yl)-9-methyl-6-({(3S)-1-[(1-methyl-1H-1,2,3-triazol-4-yl)carbonyl]pyrrolidin-3-yl}oxy)-9H-purine], 9; to `CCn1c(-c2cnc(C)nc2)nc2c(O[C@H]3CCN(C(=O)[C@H]4C[C@H]5CC[C@@H]4C5)C3)ncnc21` [Compound 2-110, 6-({(3S)-1-[(1R,2S,4S)-bicyclo[2.2.1]hept-2-ylcarbonyl]pyrrolidin-3-yl}oxy)-9-ethyl-8-(2-methylpyrimidin-5-yl)-9H-purine], above 10. For `CCn1c(-c2cnn(-c3ccccc3)c2C)nc2c(O[C@H]3CCN(C(=O)C4CC4)C3)ncnc21` [Compound 3-23, 6-{[(3S)-1-(cyclopropylcarbonyl)pyrrolidin-3-yl]oxy}-9-ethyl-8-(5-methyl-1-phenyl-1H-pyrazol-4-yl)-9H-purine], the “Relative Selectivity versus PI3Kalpha” value was above 10.

Consider `CCn1ncc(-c2nc3c(O[C@H]4CCN(C(=O)NC(C)(C)CC(C)(C)C)C4)ncnc3n2C)c1C` [Compound 5-4, (3S)-3-{[8-(1-ethyl-5-methyl-1H-pyrazol-4-yl)-9-methyl-9H-purin-6-yl]oxy}-N-(1,1,3,3-tetramethylbutyl)pyrrolidine-1-carboxamide], for which the “Relative Selectivity versus PI3Kalpha” value is above 10. To `CCn1ncc(-c2nc3c(CC4CCN(C(=O)OC(C)(C)C)C4)ncnc3n2C)c1C` (centres unmarked) [Compound 11-1, tert-butyl 3-((8-(1-ethyl-5-methyl-1H-pyrazol-4-yl)-9-methyl-9H-purin-6-yl)methyl)pyrrolidine-1-carboxylate] belongs above 10; to `CCn1ncc(-c2nc3c(S[C@H]4CCN(C(=O)C5CCOCC5)C4)ncnc3n2C)c1C` [Compound 10-3, (S)-(3-((8-(1-ethyl-5-methyl-1H-pyrazol-4-yl)-9-methyl-9H-purin-6-yl)thio)pyrrolidin-1-yl)(tetrahydro-2H-pyran-4-yl)methanone], above 10; to `CCn1ncc(-c2nc3c(O[C@H]4CCN(C(=O)c5conc5C)C4)ncnc3n2C)c1C` [Compound 2-51, 8-(1-ethyl-5-methyl-1H-pyrazol-4-yl)-9-methyl-6-({(3S)-1-[(3-methylisoxazol-4-yl)carbonyl]pyrrolidin-3-yl}oxy)-9H-purine], above 10. Take `CCC(=O)N1CC[C@H](Oc2ncnc3c2nc(-c2ccc(C)nc2)n3C)C1` [Compound 3-8, (S)-1-(3-((9-methyl-8-(6-methylpyridin-3-yl)-9H-purin-6-yl)oxy)pyrrolidin-1-yl)propan-1-one]: the “Relative Selectivity versus PI3Kalpha” value was above 10. To `CCn1ncc(-c2nc3c(O[C@H]4CCN(C(=O)c5cc(C)n(C)c5C)C4)ncnc3n2C)c1C` [Compound 2-79, 8-(1-ethyl-5-methyl-1H-pyrazol-4-yl)-9-methyl-6-({(3S)-1-[(1,2,5-trimethyl-1H-pyrrol-3-yl)carbonyl]pyrrolidin-3-yl}oxy)-9H-purine] belongs above 10. To `CCn1ncc(-c2nc3c(O[C@H]4CCN(C(=O)c5cc(C(F)(F)F)nn5C)C4)ncnc3n2C)c1C` [Compound 2-61, 8-(1-ethyl-5-methyl-1H-pyrazol-4-yl)-9-methyl-6-{[(3S)-1-{[1-methyl-3-(trifluoromethyl)-1H-pyrazol-5-yl]carbonyl}pyrrolidin-3-yl]oxy}-9H-purine] belongs above 10. Under `CCn1ncc(-c2nc3c(O[C@H]4CCN(C(=O)c5c[nH]nc5C(F)(F)F)C4)ncnc3n2C)c1C` [Compound 2-43, 8-(1-ethyl-5-methyl-1H-pyrazol-4-yl)-9-methyl-6-{[(3S)-1-{[3-(trifluoromethyl)-1H-pyrazol-4-yl]carbonyl}pyrrolidin-3-yl]oxy}-9H-purine] stands 10; under `CC(=O)Nc1ccc(-c2nc3c(O[C@H]4CCN(C(=O)OC(C)(C)C)C4)ncnc3n2C)cc1` [Compound 1-23, tert-butyl (3S)-3-({8-[4-(acetylamino)phenyl]-9-methyl-9H-purin-6-yl}oxy)pyrrolidine-1-carboxylate], above 10.

As to `CCn1ncc(-c2nc3c(S(=O)(=O)[C@H]4CCN(C(=O)OC(C)(C)C)C4)ncnc3n2C)c1C` [Compound 10-2, (S)-tert-butyl 3-((8-(1-ethyl-5-methyl-1H-pyrazol-4-yl)-9-methyl-9H-purin-6-yl)sulfonyl)pyrrolidine-1-carboxylate], the “Relative Selectivity versus PI3Kalpha” value was 8. In the case of `CCn1ncc(-c2nc3c(O[C@H]4CCN(C(=O)c5cnn(C)c5)C4)ncnc3n2C)c1C` [Compound 2-80, 8-(1-ethyl-5-methyl-1H-pyrazol-4-yl)-9-methyl-6-({(3S)-1-[(1-methyl-1H-pyrazol-4-yl)carbonyl]pyrrolidin-3-yl}oxy)-9H-purine], the “Relative Selectivity versus PI3Kalpha” value is reported as 6. To `CCC(=O)N1CC[C@H](Oc2ncnc3c2nc(C2CC2)n3C)C1` [Compound 14-2, 8-cyclopropyl-9-methyl-6-{[(3S)-1-propanoylpyrrolidin-3-yl]oxy}-9H-purine] belongs above 10; to `CCC(=O)N1CC[C@H](Oc2ncnc3c2nc(-c2ccc(OC)c(F)c2)n3C)C1` [Compound 3-32, 8-(3-fluoro-4-methoxyphenyl)-9-methyl-5-{[(3S)-1-propanoylpyrrolidin-3-yl]oxy}-9H-purine], above 10. To `CCn1c(-c2cnc(C)nc2)nc2c(O[C@H]3CCN(C(=O)C4CC4(C)C)C3)ncnc21` (single isomer, unassigned) [Compound 2-127, 6-({(3S)-1-[S- or R-(2,2-dimethylcyclopropyl)carbonyl]pyrrolidin-3-yl}oxy)-9-ethyl-8-(2-methylpyrimidin-5-yl)-9H-purine] belongs above 10; to `CCn1c(-c2cnc(OC)c(Cl)c2)nc2c(O[C@H]3CCN(C(=O)C4CC4)C3)ncnc21` [Compound 3-28, 8-(5-chloro-6-methoxypyridin-3-yl)-6-{[(3S)-1-(cyclopropylcarbonyl)pyrrolidin-3-yl]oxy}-9-ethyl-9H-purine], above 10; to `CCn1c(-c2cnc(C)nc2)nc2c(O[C@H]3CCN(C(=O)C4CC4CO)C3)ncnc21` (single isomer, unassigned) [Compound 2-130, (1S,2S)- or (1R,2R)-{[(3S)-3-{[9-ethyl-8-(2-methylpyrimidin-5-yl)-9H-purin-6-yl]oxy}pyrrolidin-1-yl]carbonyl}cyclopropyl)methanol], above 10. Under `CCC(=O)N1CC[C@H](Oc2ncnc3c2nc(-c2cnn(CC)c2C)n3CC)C1` [Compound 2-93, (S)-1-(3-((9-ethyl-8-(1-ethyl-5-methyl-1H-pyrazol-4-yl)-9H-purin-6-yl)oxy)pyrrolidin-1-yl)propan-1-one] stands above 10; under `CCn1c(-c2cnc(C)nc2)nc2c(O[C@H]3CCN(C(=O)C4CCC4C)C3)ncnc21` (single isomer, unassigned) [Compound 2-117, 9-ethyl-6-({(3S)-1-[([(1R,2S) or (1R,2R) or (1S,2R) or (1S,2S)]-methylcyclobutyl)carbonyl]pyrrolidin-3-yl}oxy)-8-(2-methylpyrimidin-5-yl)-9H-purine], above 10. Consider `CCn1c(-c2cnc(OC)c(F)c2)nc2c(O[C@H]3CCN(C(=O)C(C)C)C3)ncnc21` [Compound 3-54, 9-ethyl-8-(5-fluoro-6-methoxypyridin-3-yl)-6-{[(3S)-1-(2-methylpropanoyl)pyrrolidin-3-yl]oxy}-9H-purine], for which the “Relative Selectivity versus PI3Kalpha” value is recorded as above 10. As for `CCn1c(-c2ccc(C(F)(F)F)cc2)nc2c(O[C@H]3CCN(C(=O)C4CC4)C3)ncnc21` [Compound 2-146, 6-{[(3S)-1-(cyclopropylcarbonyl)pyrrolidin-3-yl]oxy}-9-ethyl-8-[4-(trifluoromethyl)phenyl]-9H-purine], the “Relative Selectivity versus PI3Kalpha” value is given as above 10. As to `CCC(=O)N1CC[C@H](Oc2ncnc3c2nc(-c2cnc(OC)c(F)c2)n3C)C1` [Compound 3-34, 8-(5-fluoro-6-methoxypyridin-3-yl)-9-methyl-6-{[(3S)-1-propanoylpyrrolidin-3-yl]oxy}-9H-purine], the “Relative Selectivity versus PI3Kalpha” value is on record as above 10. For the molecule `CCn1ncc(-c2nc3c(O[C@H]4CCN(C(=O)c5nonc5C)C4)ncnc3n2C)c1C` [Compound 2-35, 8-(1-ethyl-5-methyl-1H-pyrazol-4-yl)-9-methyl-6-({(3S)-1-[(4-methyl-1,2,5-oxadiazol-3-yl)carbonyl]pyrrolidin-3-yl}oxy)-9H-purine], the “Relative Selectivity versus PI3Kalpha” value is above 10. Under `CCn1ncc(-c2nc3c(O[C@H]4CCN(C(=O)C5CC(=O)N(C)C5)C4)ncnc3n2C)c1C` (stereo partly drawn) [Compound 2-62, 4-{[(3S)-3-{[8-(1-ethyl-5-methyl-1H-pyrazol-4-yl)-9-methyl-9H-purin-6-yl]oxy}pyrrolidin-1-yl]carbonyl}-1-methylpyrrolidin-2-one] stands above 10. To `CCn1c(-c2cnc(C)nc2)nc2c(O[C@H]3CCN(c4cnccn4)C3)ncnc21` [Compound 7-26, 9-ethyl-8-(2-methylpyrimidin-5-yl)-6-{[(3S)-1-pyrazin-2-ylpyrrolidin-3-yl]oxy}-9H-purine] belongs above 10.
